Assay results as given in patent US7927791B2, “Methods for identifying small molecules that modulate premature translation termination and nonsense mediated mRNA decay” (PTC Therapeutics, Inc., priority 2002, dated 2011).

Tests used:
[1] = system: HIV TAR RNA element oligonucleotide; experiment: Gel mobility shift specificity control: gentamicin with an unrelated oligonucleotide; assay type: binding; conditions: incubated with 10 mg/ml gentamicin, FIG. 4
Description: (§1) FIG. 4. The presence of 10 pg/ml gentamicin produces a gel mobility shift in the presence of the 16S rRNA oligonucleotide. 20 μl reactions containing increasing concentrations of gentamicin (100 ng/ml, 10 ng/ml, 1 ng/ml, 100 pg/ml, and 10 pg/ml) were added to 50 pmole end-labeled RNA oligonucleotide in TKM buffer were treated as described for FIG. 3.
RNA oligonucleotides were purchased from Dharmacon, Inc, Lafayette, Colo.). 500 pmole of either a 5′ fluorescein labeled oligonucleotide corresponding to the 16S rRNA A site (5′-[…]-3′ (SEQ ID NO:1); Moazed & Noller, 1987, Nature 327:389-394; Woodcock et al., 1991, EMBO J. 10:3099-3103; Yoshizawa et al., 1998, EMBO J. 17:6437-6448) or a 5′ fluorescein labeled oligonucleotide corresponding to the HIV-1 TAR element TAR RNA (5′-[…]-3′ (SEQ ID NO: 2); Huq et al., 1999, Nucleic Acids Research. 27:1084-1093; Hwang et al., 1999, Proc. Natl. Acad. Sci. USA 96:12997-13002) was 3′ labeled with 5′-^32P cytidine 3′,5′-bis(phosphate) (NEN) and T4 RNA ligase (NEBiolabs) in 10% DMSO as per manufacturer's instructions. The labeled oligonucleotides were purified using G-25 Sephadex columns (Boehringer Mannheim). […] The gel was exposed to an intensifying screen and radioactivity was quantitated using a Typhoon phosporimager molecular Dynamics). […]

[2] = system: RNA oligonucleotide corresponding to the 16S rRNA A site; experiment: Gel mobility shift assay of gentamicin binding to the 16S rRNA A site oligonucleotide
Description: FIG. 3. Gentamicin interacts with an oligonucleotide corresponding to the 16S rRNA. 20 μl reactions containing increasing concentrations of gentamicin (1 ng/ml, 10 ng/ml, 100 ng/ml, 1 μg/ml, 10 μg/ml, 50 μg/ml, 500 μg/ml) were added to 50 pmole end-labeled RNA oligonucleotide in TKM buffer, heated at 90° C. for 2 min and allowed to cool slowly to 24° C. 10 μl of 30% glycerol was added to each sample and the samples were applied to a 13.5% non-denaturing polyacrylamide gel. The gel was electrophoresed using 1200 volt-hours at 4° C. in TBE Buffer. Following electrophoresis, the gel was dried and the radioactivity was quantitated using a phosphorimager. The concentration of gentamicin added is indicated above each lane.
as §1
FIG. 5. Gentamicin binding to the 16S rRNA oligonucleotide is weak in the absence of MgCl2.
(§2) Tris-potassium chloride (TK) buffer is composed of 50 mM Tris-HCl pH 7.4, 20 mM KCl, 0.1% Triton X-100, and 0.5 mM MgCl2. Tris-borate-EDTA (TBE) buffer is composed of 45 mM Tris-borate pH 8.0, and 1 mM EDTA. Tris-Potassium chloride-magnesium (TKM) buffer is composed of 50 mM Tris-HCl pH 7.4, 20 mM KCl, 0.1% Triton X-100 and 5 mM MgCl2.
RNA oligonucleotides were purchased from Dharmacon, Inc, Lafayette, Colo.). 500 pmole of either a 5′ fluorescein labeled oligonucleotide corresponding to the 16S rRNA A site (5′-[…]-3′ (SEQ ID NO:1); Moazed & Noller, 1987, Nature 327:389-394; Woodcock et al., 1991, EMBO J. 10:3099-3103; Yoshizawa et al., 1998, EMBO J. 17:6437-6448) or a 5′ fluorescein labeled oligonucleotide corresponding to the HIV-1 TAR element TAR RNA (5′-[…]-3′ (SEQ ID NO: 2); Huq et al., 1999, Nucleic Acids Research. 27:1084-1093; Hwang et al., 1999, Proc. Natl. Acad. Sci. USA 96:12997-13002) was 3′ labeled with 5′-^32P cytidine 3′,5′-bis(phosphate) (NEN) and T4 RNA ligase (NEBiolabs) in 10% DMSO as per manufacturer's instructions. The labeled oligonucleotides were purified using G-25 Sephadex columns (Boehringer Mannheim). For Tat-TAR gel retardation reactions the method of Huq et al. (Nucleic Acids Research, 1999, 27:1084-1093) was utilized with TK buffer containing 0.5 mM MgCl2 and a 12-mer Tat peptide (YGRKKRRQRRRP (SEQ ID NO: 3; single letter amino acid code). For 16S rRNA-gentamicin reactions, the method of Huq et al was used with TKM buffer. In 20 μl reaction volumes 50 pmoles of ^32P cytidine-labeled oligonucleotide and either gentamicin sulfate (Sigma) or the short Tat peptide (Tat47-58) in TK or TKM buffer were heated at 90° C. for 2 minutes and allow to cool to room temperature (approximately 24° C.) over 2 hours. Then 10 μl of 30% glycerol was added to each reaction tube and the entire sample was loaded onto a TBE non-denaturing polyacrylamide gel and electrophoresed at 1200-1600 volt-hours at 4° C. The gel was exposed to an intensifying screen and radioactivity was quantitated using a Typhoon phosporimager molecular Dynamics).

[3] = system: HIV-1 TAR element TAR RNA oligonucleotide; experiment: Gel retardation analysis of Tat peptide binding to TAR RNA (non-denaturing polyacrylamide gel); conditions: 12% non-denaturing polyacrylamide gel, TK buffer, FIG. 2
Description: FIG. 2. Gel retardation analysis to detect peptide-RNA interactions. In 20 μl reactions containing 50 pmole end-labeled TAR RNA oligonucleotide, increasing concentrations of Tat47-58 peptide (0.1 uM, 0.2 uM, 0.4 uM, 0.8 uM, 1.6 uM) was added in TK buffer. The reaction mixture was then heated at 90° C for 2 min and allowed to cool slowly to 24° C. 10 μl of 30% glycerol was added to each sample and applied to a 12% non-denaturing polyacrylamide gel. The gel was electrophoresed using 1200 volt-hours at 4° C. in TBE Buffer. Following electrophoresis, the gel was dried and the radioactivity was quantitated with a phosphorimager. The concentration of peptide added is indicated above each lane.
as §2
RNA oligonucleotides were purchased from Dharmacon, Inc, Lafayette, Colo.). […] The gel was exposed to an intensifying screen and radioactivity was quantitated using a Typhoon phosporimager molecular Dynamics).

[4] = system: HIV-1 TAR element TAR RNA oligonucleotide; experiment: Gel retardation assay by automated capillary electrophoresis (Tat peptide and TAR RNA); assay type: binding; conditions: increasing concentrations of Tat peptide, SCE9610 apparatus, FIG. 6
Description: FIG. 6. Gel retardation analysis to detect peptide-RNA interactions. In reactions containing increasing concentrations of Tat47-58 peptide (0.1 mM, 0.2 mM, 0.4 mM, 0.8 mM, 1.6 mM) 50 pmole TAR RNA oligonucleotide was added in TK buffer. The reaction mixture was then heated at 90° C. for 2 min and allowed to cool slowly to 24° C. The reactions were loaded onto a SCE9610 automated capillary electrophoresis apparatus (SpectruMedix; State College, Pennsylvania). The peaks correspond to the amount of free TAR RNA (“TAR”) or the Tat-TAR complex (“Tat-TAR”). The concentration of peptide added is indicated below each lane.
Tris-potassium chloride (TK) buffer is composed of 50 mM Tris-HCl pH 7.4, 20 mM KCl, 0.1% Triton X-100, and 0.5 mM MgC2. Tris-borate-EDTA (IBE) buffer is composed of 45 mM Tris-borate pH 8.0, and 1 mM EDTA. Tris-Potassium chloride-magnesium (TKM) buffer is composed of 50 mM Tris-HCl pH 7.4, 20 mM KCl, 0.1% Triton X-100 and 5 mM MgCl2.
RNA oligonucleotides were purchased from Dharmacon, Inc, Lafayette, Colo.). 500 pmole of a 5′ fluorescein labeled oligonucleotide corresponding to the HIV-1 TAR element TAR RNA (5′-[…]-3′ (SEQ ID NO: 2); Huq et al., 1999, Nucleic Acids Research. 27:1084-1093; Hwang et al., 1999, Proc. Natl. Acad. Sci. USA 96:12997-13002) was used. […]

| Substance | gel mobility shift of unrelated HIV TAR RNA oligonucleotide [1] | lowest gentamicin concentration that produces the mobility shift ([2]; TKM buffer (5 mM MgCl2), 1 ng/ml to 500 μg/ml tested, FIG. 3) [ng/mL] | gel shift when gentamicin is added after renaturation has proceeded to 75° C. ([2]; added after the renaturation step has proceeded to 75° C.) | gentamicin binding to the 16S rRNA oligonucleotide in the absence of MgCl2 ([2]; buffer without MgCl2, FIG. 5) | gel shift when gentamicin is added at 90° C. or 85° C. ([2]; gentamicin present during entire denaturation/renaturation cycle, data not shown) | gentamicin concentration that must be added to produce a gel shift when MgCl2 is not present ([2]; no MgCl2 (TK buffer), FIG. 5) [mg/mL] | mobility shift of 16S rRNA A site oligonucleotide on addition of gentamicin ([2]; varying concentrations, TKM buffer, FIG. 3) | gel mobility shift of TAR RNA oligonucleotide in the presence of the peptide [3] | shift of TAR RNA peak in capillary electrophoresis [4] |
| --- | --- | --- | --- | --- | --- | --- | --- | --- | --- |
| gentamicin | does not result in a gel mobility shift | ≤ 10 | a mobility shift is not produced | weak | a gel shift is visualized | 1 | produces a mobility shift |  |  |
| YGRKKRRQRRRP [Tat47-58 peptide] |  |  |  |  |  |  |  | a clear shift is visible | a clear shift is visible |
